Reference: US6337317B1, “Antimicrobial peptides and methods of use thereof” (priority 2000, dated 2002)
Where a SMILES comes first, the peptide text is derived from it.

How the values were obtained:
[1] = Dansyl polymyxin B displacement assay (binding affinity for LPS); parameters: species or system Escherichia coli
Description: To determine whether invention peptides are able to interact with the LPS of Gram-negative bacterial outer membrane, the binding affinity of peptide for LPS was determined using a dansyl polymyxin B displacement assay (Moore et al. (1986) Antimicrobial Agents Chemother. 29:496-500). The assay uses dansyl polymyxin, a cationic probe that is highly fluorescent only when bound and LPS isolated from E. coli. UB1005. […] Maximal displacement of LPS was expressed as a percentage where 100% displacement of dansyl polymyxin B was taken as that observed with polymyxin B.

[2] = LPS-induced endotoxemia in galactosamine-sensitized mice; format: in vivo; details: 200 μg peptide intraperitoneally, groups of 10 mice, up to 24 h
Description: Bacterial endotoxin (LPS) is highly toxic and can cause high mortality in both humans and animals when released during Gram-negative bacterial infection. Galactosamine-treated mice exposed to moderate does of endotoxin typically die from endotoxic shock within 17 hours following exposure. Invention peptides can be tested for their ability to protect mice against endotoxin-induced death (see Examples section). The anti-endotoxic activity of invention peptides also can be tested in an in vitro assay using a macrophage cell line (Gough et al. (1996) Infect. Immun. 64:4922-4927; and Examples section).
The ability of invention peptides to protect against LPS-induced endotoxemia was assessed in vivo. Mice (8-10 weeks old) were injected intraperitoneally with […] D-galactosamine (Dgal) to sensitize them to LPS according to the method of Galanos (Galanos et al. (1979) Proc. Natl. Acad. Sci., USA, 76:5939-5943). Endotoxic shock was induces by intraperitoneal injections of 3 μg/mL E. coli 111 :B4 LPS in phosphate-buffered saline (PBS). Invention peptides (200 μg/100 μl sterile water) were injected intraperitoneally at a separate site within 10 min of LPS injection, and survival was monitored up to 24 h following injection.

S. aureus SAP0017 = format: cell-based, Staphylococcus aureus
Description: (§1) The biological activity of the peptides can be determined by standard methods known to those of skill in the art, such as a “minimal inhibitory concentration” (MIC) assay (see Wu and Hancock (1999) J. Biol Chem. 274:29-35 and Examples section). A MIC assay allows the determination of the lowest concentration of peptide that inhibits the multiplication and growth of mircoorganisms. Changes in the microorganism population are assessed by measuring the optical density (OD) of the population in broth or medium. Peptide MIC's can be determined for a variety of micoorganisms under a variety of conditions. Another assay for the biological activity of the peptides is a “fractional inhibitory concentration” (FIC) assay. This assay is especially useful for determining synergistic effects between the peptides of the invention, and between invention peptides and other compounds such as known antibiotics. A FIC assay employs the strategy of a MIC assay with additional variable(s), e.g., known antibiotics. […] The FIC is calculated by looking at the impact of an antibiotic on the MIC of the peptide and the reciprocal relationship. […] As used herein, FIC can be determined as follows: […]
(§2) MIC Assay p The minimum inhibitory concentrations of (MIC) of several invention peptides were determined using methods described elsewhere (Wu and Hancock, (1999) J. Biol Chem. 274:29-35). […]

S. aureus R147 = format: cell-based, Staphylococcus aureus
Description: as §1, §2

P. aeruginosa H744 = format: cell-based, Pseudomonas aeruginosa
Description: as §1, §2

P. aeruginosa H374 = format: cell-based, Pseudomonas aeruginosa
Description: as §1, §2

In the case of CC(C)[C@@H]1NC(=O)[C@H](CCCNC(=N)N)NC(=O)[C@H](Cc2ccccc2)NC(=O)[C@@H](NC(=O)[C@H](Cc2c[nH]c3ccccc23)NC(=O)[C@H](CCCNC(=N)N)NC(=O)[C@@H](N)CCCNC(=N)N)CSSC[C@@H](C(=O)N[C@@H](CCCNC(=N)N)C(N)=O)NC(=O)[C@H](CCCCN)NC(=O)[C@H](CCCNC(=N)N)NC(=O)[C@H](Cc2ccc(O)cc2)NC(=O)[C@@H]2CSSC[C@H](NC1=O)C(=O)N[C@@H](Cc1ccc(O)cc1)C(=O)N[C@@H](CCCNC(=N)N)C(=O)NCC(=O)N[C@@H](Cc1ccccc1)C(=O)N2 [Polyphemusin I] (HELM PEPTIDE1{R.R.W.C.F.R.V.C.Y.R.G.F.C.Y.R.K.C.R.[am]}$PEPTIDE1,PEPTIDE1,4:R3-17:R3|PEPTIDE1,PEPTIDE1,8:R3-13:R3$$$V2.0; N-terminus and C-terminus assumed), the Imax ([1]; maximal displacement, 100% = that observed with polymyxin B) is reported as 85%, the IC50 ([1]; peptide concentration reducing bound dansyl polymyxin B (10 μM) by 50% of maximal displacement, read-out: I50) is reported as 4.8 µM and the “Survival (%), LPS-Endotoxemia” value [2] is reported as 10%. For the same compound, the MIC (S. aureus SAP0017) was 0.5 µg/mL, the MIC (S. aureus R147) was 0.5 µg/mL and the MIC (P. aeruginosa H744) was 0.25 µg/mL. It also gave an MIC (P. aeruginosa H374) of 0.25 µg/mL.
